Measurements from patent publication US11292002B2, “Surfactant additives for digital microfluidic devices for high protein content droplets transport” (THE GOVERNING COUNCIL OF THE UNIVERSITY OF TORONTO, priority 2016, dated 2022).

Target: BSA (Bos taurus, UniProt P02769)
Assay: Circular dichroism (CD) spectra of BSA with surfactant
Type: physicochemical, bovine
Settings: 0.1 g·L^−1 BSA; 1, 2, 2.5, 4, or 6 mM SDS
Description: Resolution of CD is ±0.1 degree.
Surfactant-protein complexation is often associated with molecular rearrangement of the protein (i.e., change in protein conformation). […] Protein conformation changes can be probed using circular dichroism (CD) experiments, as illustrated in FIG. 5.

BSA, sequence (P02769 25-607): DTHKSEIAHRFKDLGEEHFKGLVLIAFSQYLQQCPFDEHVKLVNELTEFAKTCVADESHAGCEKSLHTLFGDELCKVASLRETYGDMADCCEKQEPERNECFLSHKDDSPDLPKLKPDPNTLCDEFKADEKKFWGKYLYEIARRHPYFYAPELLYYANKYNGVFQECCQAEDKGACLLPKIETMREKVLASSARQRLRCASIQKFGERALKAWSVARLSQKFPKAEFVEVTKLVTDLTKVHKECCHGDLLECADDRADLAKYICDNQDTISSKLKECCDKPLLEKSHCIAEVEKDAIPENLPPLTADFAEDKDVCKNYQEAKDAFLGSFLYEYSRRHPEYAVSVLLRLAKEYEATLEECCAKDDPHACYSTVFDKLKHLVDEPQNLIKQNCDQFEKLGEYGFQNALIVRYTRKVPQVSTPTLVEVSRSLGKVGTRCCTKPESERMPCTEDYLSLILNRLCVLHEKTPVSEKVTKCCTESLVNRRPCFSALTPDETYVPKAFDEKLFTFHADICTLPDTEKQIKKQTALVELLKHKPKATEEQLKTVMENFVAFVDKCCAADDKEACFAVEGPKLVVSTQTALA

CCCCCCCCCCCCOS(=O)(=O)[O-].[Na+] [SDS, sodium dodecyl sulfate]
CD spectrum of BSA with surfactant compared with BSA alone: distinctly different CD spectrum
